Data published in patent US9695155B2, “Herbicidal substituted pyrimidinyloxy benzene compounds” (E. I. DU PONT DE NEMOURS AND COMPANY, priority 2013, dated 2017).

What was measured:
[1] = test system: ducksalad; test: Test C flooded paddy test; format: in vivo, Heteranthera limosa; conditions: Flood, scale 0 to 100 (0 no effect, 100 complete control), 13 to 15 days
Summary of the method: (§1)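 Flooded 3 cm over soil; compound into paddy water; depth kept constant. Greenhouse 13–15 d.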

[2] = test system: corn; test: Test E postemergence; format: in vivo, Zea mays
Summary of the method: (§2)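 Response was scored visually on a 0-100 scale (100 = complete control) versus controls after 14 to 21 days in the greenhouse. Test chemicals, formulated with surfactant in a non-phytotoxic solvent mixture, had been applied preemergence to seeds in silt loam soil or postemergence to 1- to 4-leaf plants in potting medium.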

[3] = test system: Brazilian crabgrass; test: Test E postemergence; format: in vivo, Digitaria horizontalis
Summary of the method: as §2

[4] = test system: nightshade; test: Test E preemergence; format: in vivo, Solanum ptycanthum; conditions: for Nightshade plant response rating: scale 0 to 100 (0 no effect, 100 complete control); for Plant response rating, Nightshade: scale 0 to 100, 0 no effect, 100 complete control
Summary of the method: as §2

[5] = test system: goosegrass; test: Test E preemergence; format: in vivo, Eleusine indica; conditions: for Goosegrass plant response rating: scale 0 to 100 (0 no effect, 100 complete control); for Plant response rating, Goosegrass: scale 0 to 100, 0 no effect, 100 complete control
Summary of the method: as §2

[6] = test system: yellow nutsedge; test: Test E preemergence; format: in vivo, Cyperus esculentus; conditions: for Nutsedge, Yellow plant response rating: scale 0 to 100 (0 no effect, 100 complete control); for Plant response rating, Nutsedge, Yellow: scale 0 to 100, 0 no effect, 100 complete control
Summary of the method: as §2

[7] = test system: sandbur; test: Test E postemergence; format: in vivo, Cenchrus echinatus
Summary of the method: as §2

[8] = test system: wild poinsettia; test: Test E preemergence; format: in vivo, Euphorbia heterophylla; conditions: for Poinsettia, Wild plant response rating: scale 0 to 100 (0 no effect, 100 complete control); for Plant response rating, Poinsettia, Wild: scale 0 to 100, 0 no effect, 100 complete control
Summary of the method: as §2

[9] = test system: morningglory; test: Test E preemergence; format: in vivo, Ipomoea coccinea; conditions: for Morningglory plant response rating: scale 0 to 100 (0 no effect, 100 complete control); for Plant response rating, Morningglory: scale 0 to 100, 0 no effect, 100 complete control
Summary of the method: as §2

[10] = test system: surinam grass; test: Test E preemergence; format: in vivo, Brachiaria decumbens; conditions: for Surinam Grass plant response rating: scale 0 to 100 (0 no effect, 100 complete control); for Plant response rating, Surinam Grass: scale 0 to 100, 0 no effect, 100 complete control
Summary of the method: as §2

[11] = test system: rice; test: Test C flooded paddy test; format: in vivo, Oryza sativa; conditions: Flood, scale 0 to 100 (0 no effect, 100 complete control), 13 to 15 days
Summary of the method: as §1

[12] = test system: giant foxtail; test: Test E preemergence; format: in vivo, Setaria faberii; conditions: for Foxtail, Giant plant response rating: scale 0 to 100 (0 no effect, 100 complete control); for Plant response rating, Foxtail, Giant: scale 0 to 100, 0 no effect, 100 complete control
Summary of the method: as §2

[13] = test system: ragweed; test: Test E preemergence; format: in vivo, Ambrosia elatior; conditions: for Ragweed plant response rating: scale 0 to 100 (0 no effect, 100 complete control); for Plant response rating, Ragweed: scale 0 to 100, 0 no effect, 100 complete control
Summary of the method: as §2

[14] = test system: green foxtail; test: Test E preemergence; format: in vivo, Setaria viridis; conditions: for Foxtail, Green plant response rating: scale 0 to 100 (0 no effect, 100 complete control); for Plant response rating, Foxtail, Green: scale 0 to 100, 0 no effect, 100 complete control
Summary of the method: as §2

[15] = test system: soybean; test: Test E postemergence; format: in vivo, Glycine max
Summary of the method: as §2

[16] = test system: arrowleaf sida; test: Test E postemergence; format: in vivo, Sida rhombifolia
Summary of the method: as §2

[17] = test system: barnyardgrass; test: Test E postemergence; format: in vivo, Echinochloa crus-galli
Summary of the method: as §2

[18] = test system: hairy beggarticks; test: Test E preemergence; format: in vivo, Bidens pilosa; conditions: preemergence; for Beggarticks plant response rating: scale 0 to 100 (0 no effect, 100 complete control); for Plant response rating, Beggarticks: scale 0 to 100, 0 no effect, 100 complete control
Summary of the method: as §2

[19] = Postemergence, 31 g ai/ha, scale 0 to 100
[20] = Postemergence, 62 g ai/ha, scale 0 to 100
[21] = Postemergence, 125 g ai/ha, scale 0 to 100
[22] = Postemergence, 250 g ai/ha, scale 0 to 100
[23] = postemergence, 16 g ai/ha, scale 0 to 100, 0 no effect, 100 complete control

N#Cc1cnn(-c2c(C#N)cccc2Oc2ncc(Cl)cn2)c1 [Compound 200]
Plant response rating, Ducksalad ([1]; 31 g ai/ha): 0
Plant response rating, Ducksalad ([1]; 62 g ai/ha): 0
Plant response rating, Ducksalad ([1]; 125 g ai/ha): 20
Plant response rating, Ducksalad ([1]; 250 g ai/ha): 80
Plant response rating, Corn [2, 19]: 10
Plant response rating, Corn [2, 20]: 15
Plant response rating, Corn [2, 21]: 20
Plant response rating, Corn [2, 22]: 25
Plant response rating, Corn [2, 23]: 10
Plant response rating, Crabgrass, Brazil [3, 19]: 15
Plant response rating, Crabgrass, Brazil [3, 20]: 30
Plant response rating, Crabgrass, Brazil [3, 21]: 50
Plant response rating, Crabgrass, Brazil [3, 22]: 60
Plant response rating, Crabgrass, Brazil [3, 23]: 10
Nightshade plant response rating ([4]; 31 g ai/ha): 10
Nightshade plant response rating ([4]; 62 g ai/ha): 85
Plant response rating, Nightshade ([4]; 125 g ai/ha): 100
Plant response rating, Nightshade ([4]; 250 g ai/ha): 100
Goosegrass plant response rating ([5]; 31 g ai/ha): 5
Goosegrass plant response rating ([5]; 62 g ai/ha): 60
Plant response rating, Goosegrass ([5]; 125 g ai/ha): 80
Plant response rating, Goosegrass ([5]; 250 g ai/ha): 90
Nutsedge, Yellow plant response rating ([6]; 31 g ai/ha): 0
Nutsedge, Yellow plant response rating ([6]; 62 g ai/ha): 0
Plant response rating, Nutsedge, Yellow ([6]; 125 g ai/ha): 40
Plant response rating, Nutsedge, Yellow ([6]; 250 g ai/ha): 70
Plant response rating, Sandbur [7, 19]: 0
Plant response rating, Sandbur [7, 20]: 0
Plant response rating, Sandbur [7, 21]: 0
Plant response rating, Sandbur [7, 22]: 10
Plant response rating, Sandbur [7, 23]: 0
Poinsettia, Wild plant response rating ([8]; 31 g ai/ha): 50
Poinsettia, Wild plant response rating ([8]; 62 g ai/ha): 50
Plant response rating, Poinsettia, Wild ([8]; 125 g ai/ha): 90
Plant response rating, Poinsettia, Wild ([8]; 250 g ai/ha): 95
Morningglory plant response rating ([9]; 31 g ai/ha): 20
Morningglory plant response rating ([9]; 62 g ai/ha): 50
Plant response rating, Morningglory ([9]; 125 g ai/ha): 90
Plant response rating, Morningglory ([9]; 250 g ai/ha): 98
Surinam Grass plant response rating ([10]; 31 g ai/ha): 5
Surinam Grass plant response rating ([10]; 62 g ai/ha): 70
Plant response rating, Surinam Grass ([10]; 125 g ai/ha): 100
Plant response rating, Surinam Grass ([10]; 250 g ai/ha): 100
Plant response rating, Rice ([11]; 31 g ai/ha): 0
Plant response rating, Rice ([11]; 62 g ai/ha): 0
Plant response rating, Rice ([11]; 125 g ai/ha): 0
Plant response rating, Rice ([11]; 250 g ai/ha): 0
Foxtail, Giant plant response rating ([12]; 16 g ai/ha): 0
Foxtail, Giant plant response rating ([12]; 31 g ai/ha): 0
Foxtail, Giant plant response rating ([12]; 62 g ai/ha): 0
Plant response rating, Foxtail, Giant ([12]; 125 g ai/ha): 25
Plant response rating, Foxtail, Giant ([12]; 250 g ai/ha): 70
Ragweed plant response rating ([13]; 31 g ai/ha): 0
Ragweed plant response rating ([13]; 62 g ai/ha): 80
Plant response rating, Ragweed ([13]; 125 g ai/ha): 80
Plant response rating, Ragweed ([13]; 250 g ai/ha): 95
Foxtail, Green plant response rating ([14]; 16 g ai/ha): 0
Foxtail, Green plant response rating ([14]; 31 g ai/ha): 5
Foxtail, Green plant response rating ([14]; 62 g ai/ha): 30
Plant response rating, Foxtail, Green ([14]; 125 g ai/ha): 75
Plant response rating, Foxtail, Green ([14]; 250 g ai/ha): 100
Plant response rating, Soybean [15, 19]: 95
Plant response rating, Soybean [15, 20]: 95
Plant response rating, Soybean [15, 21]: 95
Plant response rating, Soybean [15, 22]: 98
Plant response rating, Soybean [15, 23]: 95
Plant response rating, Arrowleaf Sida [16, 19]: 80
Plant response rating, Arrowleaf Sida [16, 20]: 80
Plant response rating, Arrowleaf Sida [16, 21]: 90
Plant response rating, Arrowleaf Sida [16, 22]: 98
Plant response rating, Arrowleaf Sida [16, 23]: 60
Plant response rating, Barnyardgrass [17, 19]: 0
Plant response rating, Barnyardgrass [17, 20]: 0
Plant response rating, Barnyardgrass [17, 21]: 20
Plant response rating, Barnyardgrass [17, 22]: 40
Plant response rating, Barnyardgrass [17, 23]: 0
Beggarticks plant response rating ([18]; 16 g ai/ha): 0
Beggarticks plant response rating ([18]; 31 g ai/ha): 10
Beggarticks plant response rating ([18]; 62 g ai/ha): 35
Plant response rating, Beggarticks ([18]; 125 g ai/ha): 75
Plant response rating, Beggarticks ([18]; 250 g ai/ha): 95
